According to US10456379B2, “Imidazole-based antimicrobial agents” (priority 2014, dated 2019):
In brackets after ≈: the same amount, converted by molar mass. Where two headings read alike, the source gives them in different places.

Experiments:
[1] = tested on: Streptococcus pneumoniae (Chester, ATCC49619); assay: Broth microdilution MIC assay, Streptococcus pneumoniae; type: cell-based; settings: for MIC: Streptococcus pneumoniae, ATCC49619, read-out: Antibacterial activity, SP (Streptococcus pneumoniae), MIC class; for Antibacterial activity Streptococcus pneumoniae: MIC class score, MIC100, broth microdilution
[2] = tested on: Enterococcus faecium (AGR15, ATCCBAA-2127); assay: Broth microdilution MIC assay, Enterococcus faecium; type: cell-based; settings: ATCCBAA2127, read-out: Antibacterial activity, EFm (Enterococcus faecium), MIC class
[3] = tested on: vancomycin-resistant Enterococcus faecalis (ATCC51575); assay: microbe, parasite or virus in culture; type: cell-based; settings: ATCC51575; vancomycin-resistant Enterococcus faecalis; read-out: Antibacterial activity, VREFs (vancomycin-resistant EFs), MIC class
[4] = tested on: Staphylococcus epidermidis (PCI 1200, ATCC12228); assay: Broth microdilution MIC assay, Staphylococcus epidermidis; type: cell-based; settings: read-out: Antibacterial activity, SE (Staphylococcus epidermidis), MIC class
[5] = tested on: Enterococcus faecalis (ATCC29212); assay: Broth microdilution MIC assay, Enterococcus faecalis; type: cell-based; settings: read-out: Antibacterial activity, EFs (Enterococcus faecalis), MIC class
[6] = tested on: vancomycin-resistant Enterococcus faecium (ATCC51559); assay: microbe, parasite or virus in culture; type: cell-based; settings: ATCC51559; vancomycin-resistant Enterococcus faecium; read-out: Antibacterial activity, VREFm (vancomycin-resistant EFm), MIC class
[7] = tested on: Staphylococcus aureus MRSA (COL); assay: Broth microdilution MIC assay, Staphylococcus aureus MRSA (COL); type: cell-based; settings: for Antibacterial activity Staphylococcus aureus (MRSA): MIC class score, MIC100, broth microdilution, COL strain
[8] = tested on: Staphylococcus aureus MSSA (Newman); assay: Broth microdilution MIC assay, Staphylococcus aureus MSSA (Newman); type: cell-based; settings: for Antibacterial activity Staphylococcus aureus (MSSA): MIC class score, MIC100, broth microdilution, Newman strain; for MIC: Staphylococcus aureus
[9] = tested on: Mycobacterium smegmatis (mc(2)155); assay: Broth microdilution MIC assay, Mycobacterium smegmatis
[10] = tested on: platensimycin-resistant Staphylococcus aureus (from MRSA COL); assay: Broth microdilution MIC assay, platensimycin-resistant MRSA; type: cell-based; settings: 24 h, read-out: Antibacterial activity, MRSA strains with additional resistance, P (platensimycin), MIC class
[11] = tested on: daptomycin-resistant Staphylococcus aureus (from MRSA COL); assay: Broth microdilution MIC assay, daptomycin-resistant MRSA; type: cell-based; settings: 24 h, read-out: Antibacterial activity, MRSA strains with additional resistance, D (daptomycin), MIC class
[12] = tested on: MRSA (COL) resistant to triclosan; assay: Broth microdilution MIC assay, triclosan-resistant MRSA; settings: Staphylococcus aureus, read-out: Antibacterial activity, MRSA strains with additional resistance, T (triclosan), MIC class
[13] = read-out: Antibacterial activity, MSSA (Staphylococcus aureus MSSA), MIC class
[14] = read-out: Antibacterial activity Staphylococcus aureus (MSSA)

Cc1nc(-c2ccc(-c3ccc(Cl)c(OC(F)(F)F)c3)o2)[nH]c1-c1ccc(Cl)cc1 [compound 44]
MIC [1]: < 1 µg/mL
MIC [2]: 20 to 50 µg/mL (≈ 44.1 to 110 µM)
MIC [3]: 11 to 20 µg/mL (≈ 24.3 to 44.1 µM)
MIC [4]: 11 to 20 µg/mL (≈ 24.3 to 44.1 µM)
MIC [5]: 20 to 50 µg/mL (≈ 44.1 to 110 µM)
MIC [6]: 11 to 20 µg/mL (≈ 24.3 to 44.1 µM)
Antibacterial activity Staphylococcus aureus (MRSA) [7]: 2 (MIC100 of 11-20 μg/ml)

Cc1[nH]c(-c2ccc(-c3ccc(C(F)(F)F)cc3)s2)nc1-c1ccccc1 [compound 46]
Antibacterial activity Streptococcus pneumoniae [1]: 3 (MIC100 of 2-5 μg/ml)
Antibacterial activity Staphylococcus aureus (MSSA) [8]: 2 (MIC100 of 11-20 μg/ml)
MIC [8, 13]: 11 to 20 µg/mL (≈ 28.6 to 52 µM)

Cc1[nH]c(-c2ccc(-c3ccc(C(F)(F)F)cc3)o2)nc1-c1ccc(Cl)cc1 [compound 47]
MIC [2]: 20 to 50 µg/mL (≈ 49.7 to 124 µM)
MIC [3]: 20 to 50 µg/mL (≈ 49.7 to 124 µM)
MIC [5]: 20 to 50 µg/mL (≈ 49.7 to 124 µM)
MIC [6]: 20 to 50 µg/mL (≈ 49.7 to 124 µM)
Antibacterial activity, MS (Mycobacterium smegmatis), MIC class [9]: 3 (MIC100 of 3-10 μg/ml)
Antibacterial activity Staphylococcus aureus (MRSA) [7]: 3 (MIC100 of 3-10 μg/ml)

Cc1[nH]c(-c2ccc(-c3ccc(OC(F)(F)F)cc3)o2)nc1-c1ccc(Cl)cc1 [compound 48]
MIC [3]: 20 to 50 µg/mL (≈ 47.8 to 119 µM)
MIC [4]: 11 to 20 µg/mL (≈ 26.3 to 47.8 µM)
MIC [5]: 20 to 50 µg/mL (≈ 47.8 to 119 µM)
MIC [6]: 20 to 50 µg/mL (≈ 47.8 to 119 µM)

Cc1[nH]c(-c2ccc(-c3ccc(OC(F)(F)F)c(Cl)c3)o2)nc1-c1ccc(Cl)cc1 [compound 50]
Antibacterial activity Streptococcus pneumoniae [1]: 3 (MIC100 of 2-5 μg/ml)
MIC [1]: 2 to 5 µg/mL (≈ 4.41 to 11 µM)
MIC ([7]; Staphylococcus aureus, MRSA, read-out: Antibacterial activity, MRSA (Staphylococcus aureus MRSA), MIC class): 11 to 20 µg/mL (≈ 24.3 to 44.1 µM)

Cc1[nH]c(-c2ccc(-c3ccc(OC(F)(F)F)cc3Cl)o2)nc1-c1ccc(F)cc1 [compound 51]
MIC [10]: 11 to 20 µg/mL (≈ 25.2 to 45.8 µM)
MIC [11]: 1 to 3 µg/mL (≈ 2.29 to 6.87 µM)
Antibacterial activity Staphylococcus aureus (MSSA) [8]: 2 (MIC100 of 11-20 μg/ml)
MIC [8, 13]: 11 to 20 µg/mL (≈ 25.2 to 45.8 µM)
MIC [12]: 3 to 10 µg/mL (≈ 6.87 to 22.9 µM)

FC(F)(F)c1ccccc1-c1ccc(-c2nc(Cl)c(-c3ccccc3)[nH]2)o1 [compound 65]
MIC [1]: < 1 µg/mL
Antibacterial activity Staphylococcus aureus (MSSA) [8]: 2 (MIC100 of 11-20 μg/ml)
MIC [8, 13]: 11 to 20 µg/mL (≈ 28.3 to 51.4 µM)

FC(F)(F)Oc1ccccc1-c1ccc(-c2nc(-c3ccccc3Cl)c[nH]2)o1 [compound 67]
MIC [1]: 2 to 5 µg/mL (≈ 4.94 to 12.4 µM)
MIC [4]: 11 to 20 µg/mL (≈ 27.2 to 49.4 µM)

FC(F)(F)Oc1ccccc1-c1ccc(-c2nc(-c3ccc(Cl)cc3Cl)c[nH]2)o1 [compound 68]
MIC [1]: 6 to 10 µg/mL (≈ 13.7 to 22.8 µM)
MIC [10]: 20 to 50 µg/mL (≈ 45.5 to 114 µM)
MIC [11]: 1 to 3 µg/mL (≈ 2.28 to 6.83 µM)
Antibacterial activity Staphylococcus aureus (MSSA) [8]: 2 (MIC100 of 11-20 μg/ml)
MIC [8, 13]: 11 to 20 µg/mL (≈ 25 to 45.5 µM)

Cc1ccccc1-c1cnc(-c2ccc(-c3ccccc3C(F)(F)F)o2)[nH]1 [compound 69]
MIC [1]: < 1 µg/mL
MIC [6]: 20 to 50 µg/mL (≈ 54.3 to 136 µM)
MIC [8, 13]: 11 to 20 µg/mL (≈ 29.9 to 54.3 µM)
Antibacterial activity, MS (Mycobacterium smegmatis), MIC class [9]: 2 (MIC100 of 11-20 μg/ml)
Antibacterial activity Staphylococcus aureus (MRSA) [7]: 2 (MIC100 of 11-20 μg/ml)

FC(F)(F)c1ccccc1-c1ccc(-c2ncc(-c3ccccc3)[nH]2)o1 [compound 75]
Antibacterial activity Streptococcus pneumoniae [1]: 3 (MIC100 of 2-5 μg/ml)
MIC [8, 14]: 11 to 20 µg/mL (≈ 31 to 56.4 µM)

Cc1nc(-c2ccc(-c3ccccc3F)o2)[nH]c1-c1ccc(O)cc1 [compound 77]
Antibacterial activity Streptococcus pneumoniae [1]: 3 (MIC100 of 2-5 μg/ml)
Antibacterial activity Staphylococcus aureus (MSSA) [8]: 3 (MIC100 of 3-10 μg/ml)

Cc1nc(-c2ccc(-c3ccc(O)cc3F)o2)[nH]c1-c1ccc(O)cc1 [compound 120]
Antibacterial activity Staphylococcus aureus (MSSA) [8]: 2 (MIC100 of 11-20 μg/ml)

Fc1ccc(-c2ccc(-c3nc4ccccc4[nH]3)o2)cc1 [compound 121]
Antibacterial activity Streptococcus pneumoniae [1]: in- active
Antibacterial activity Staphylococcus aureus (MRSA) [7]: in- active

Fc1ccc(-c2ccc(-c3nc4ccccc4[nH]3)o2)c(F)c1 [compound 122]
Antibacterial activity Streptococcus pneumoniae [1]: in- active
Antibacterial activity Staphylococcus aureus (MRSA) [7]: in- active

Cc1nc(-c2ccc(-c3cccc(O)c3)o2)[nH]c1-c1ccccc1 [compound 145]
Antibacterial activity Streptococcus pneumoniae [1]: 2 (MIC100 of 6-10 μg/ml)
MIC [8, 14]: 11 to 20 µg/mL (≈ 34.8 to 63.2 µM)

Cc1nc(-c2ccc(-c3ccccc3O)o2)[nH]c1-c1ccccc1 [compound 149]
MIC [8, 14]: 11 to 20 µg/mL (≈ 34.8 to 63.2 µM)

Cc1nc(-c2ccc(-c3ccc(O)cc3)o2)[nH]c1-c1ccccc1 [compound 150]
Antibacterial activity Streptococcus pneumoniae [1]: 2 (MIC100 of 6-10 μg/ml)
MIC [8, 14]: 11 to 20 µg/mL (≈ 34.8 to 63.2 µM)

Cc1nc(-c2ccc(-c3ccc4cc(O)ccc4c3)o2)[nH]c1-c1ccccc1 [compound 154]
Antibacterial activity Streptococcus pneumoniae [1]: 2 (MIC100 of 6-10 μg/ml)
MIC [8, 14]: 11 to 20 µg/mL (≈ 30 to 54.6 µM)
